Experimental data from US9849131B2 (AUTIFONY THERAPEUTICS LIMITED, priority 2009, dated 2017).

Legend:
hKv3.2 = target: T1, hKv3.2 (Homo sapiens, UniProt Q96PR1); assay: IonWorks Quattro assay, secondary analysis of activation time constant (Tauact); type: cell-based; settings: for acts as positive or negative modulator of Kv3.1 and/or Kv3.2: classification from effect on Tauact; for effect on the value of Tauact compared to the vehicle control: vehicle DMSO 0.5%
T1 construct: expressed in transfected cells; host or cells: CHO-K1
T1 sequence (Q96PR1 1-638): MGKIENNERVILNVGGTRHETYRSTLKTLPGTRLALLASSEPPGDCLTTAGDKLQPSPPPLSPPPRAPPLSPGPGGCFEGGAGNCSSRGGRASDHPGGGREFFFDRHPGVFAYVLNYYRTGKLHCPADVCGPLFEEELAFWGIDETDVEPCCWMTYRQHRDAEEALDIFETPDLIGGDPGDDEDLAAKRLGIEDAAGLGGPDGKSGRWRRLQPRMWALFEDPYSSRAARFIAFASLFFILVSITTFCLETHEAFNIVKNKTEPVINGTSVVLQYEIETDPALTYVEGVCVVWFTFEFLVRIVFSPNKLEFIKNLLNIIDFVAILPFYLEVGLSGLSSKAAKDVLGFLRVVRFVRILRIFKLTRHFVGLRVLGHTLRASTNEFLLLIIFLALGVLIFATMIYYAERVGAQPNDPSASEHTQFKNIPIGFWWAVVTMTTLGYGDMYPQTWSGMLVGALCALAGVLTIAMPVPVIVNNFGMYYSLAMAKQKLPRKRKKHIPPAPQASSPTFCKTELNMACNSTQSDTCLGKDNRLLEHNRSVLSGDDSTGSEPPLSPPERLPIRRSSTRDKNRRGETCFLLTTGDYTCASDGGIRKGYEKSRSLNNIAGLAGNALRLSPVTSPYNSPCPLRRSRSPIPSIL
Experimental: A stable cell line expressing human Kv3.2 channels (hKv3.2) was created by transfecting Chinese Hamster Ovary (CHO)-K1 cells with a pCIH5-hKv3.2 vector. Cells were cultured in DMEM/F12 medium supplemented by 10% Foetal Bovine Serum, 1× non-essential amino acids (Invitrogen) and 500 ug/ml of Hygromycin-B (Invitrogen). Cells were grown and maintained at 37° C. in a humidified environment containing 5% CO2 in air.
The day of the experiment, cells were removed from the incubator and the culture medium removed. Cells were washed with 5 ml of Dulbecco's PBS (DPBS) calcium and magnesium free and detached by the addition of 3 ml Versene (Invitrogen, Italy) followed by a brief incubation at 37° C. for 5 minutes. The flask was tapped to dislodge cells and 10 ml of DPBS containing calcium and magnesium was added to prepare a cell suspension. The cell suspension was then placed into a 15 ml centrifuge tube and centrifuged for 2 min at 1200 rpm. After centrifugation, the supernatant was removed and the cell pellet re-suspended in 4 ml of DPBS containing calcium and magnesium using a 5 ml pipette to break […] up the pellet. Cell suspension volume was then corrected to give a cell concentration for the assay of approximately 3 million cells per ml.
Experiments were conducted at room temperature using IonWorks Quattro™ planar array electrophysiology technology (Molecular Devices Corp.) with PatchPlate™ PPC. Stimulation protocols and data acquisition were carried out using a microcomputer (Dell Pentium 4). Planar electrode hole resistances (Rp) were determined by applying a 10 mV voltage step across each well. These measurements were performed before cell addition. […] Following this, amphotericin-B solution was added to the intracellular face of the electrode to achieve intracellular access. Cells were held at −70 mV. Leak subtraction was conducted in all experiments by applying 50 ms hyperpolarizing (10 mV) prepulses to evoke leak currents followed by a 20 ms period at the holding potential before test pulses. From the holding potential of −70 mV, a first test pulse to −15 mV was applied for 100 ms and following a further 100 ms at −70 mV, a second pulse to 40 mV was applied for 50 ms. Cells were then maintained for a further 100 ms at −100 mV and then a voltage ramp from −100 mV to 40 mV was applied over 200 ms. In all experiments, the test pulses protocol was performed in the absence (pre-read) and presence (post-read) of the test compound. Pre- and post-reads were separated by the compound addition followed by a 3 minute incubation.
The magnitude of the effect of a compound can be determined from the time constant (Tauact) obtained from a non-linear fit, using the equation given below, of the rise in Kv3.1 or Kv3.2 currents following the start of the depolarising voltage pulse. Y=(Y0−Ymax)*exp(−K*X)+Ymax
Where: • Y0 is the current value at the start of the depolarising voltage pulse; • Ymax is the plateau current;
K is the rate constant, and Tauact is the activation time constant, which is the reciprocal of K.

[1] = system: fast-firing interneurons in the somatosensory cortex; assay: Recordings from fast-firing interneurons driven by high frequency current pulse trains (FIG. 2); type: cell-based, mouse; settings: 1 microM; trains of depolarising current pulses at 100, 200, 300 Hz; n=6
Text: Kv3.1 and Kv3.2 channels must activate and deactivate very rapidly in order to allow neurons to fire actions potentials at high frequency (Rudy and McBain, 2001, Trends in Neurosciences 24, 517-526). Slowing of activation will delay the onset of action potential repolarisation; slowing of deactivation will lead to hyperpolarising currents that reduce the excitability of the neuron and delay the time before the neuron can fire a further action potential. Together these two slowing effects will lead to a reduction rather than a facilitation of the neurons ability to fire at high frequencies. […] This latter effect can be observed from recordings made from “fast-firing” interneurons in the cortex of rat brain, using electrophysiological techniques, in vitro (FIG. 2).
The neurons are induced to fire at high frequencies by trains of high frequency depolarising current pulses at 100, 200, and 300 Hz. The ability of the neuron to fire an action potential on each pulse is determined. […] In the absence of drug (closed circles, n=9), the neurons maintained a spike probability of 1 up to 300 Hz.

[2] = system: parvalbumin-positive interneurons in the somatosensory cortex; assay: Firing of parvalbumin-positive interneurons in somatosensory cortex slices, in vitro (Example 90); type: cell-based, mouse; settings: TEA 0.5 mM vs control slices; at least 1 hour incubation
[3] = system: high voltage-activated potassium currents in MNTB neurons (presumed to be mediated by Kv3.1 channels); assay: Potassium currents recorded from MNTB neurons, in vitro (Example 91); type: cell-based, mouse; settings: TEA 1 mM; voltage steps to +40 mV
Experimental: Male CBA/Ca mice (aged 12-16 days) were used in these experiments (in accordance with the UK Animals Scientific Procedures Act, 1986). Brain slices containing the medial nucleus of the trapezoid body (MNTB) were prepared as described previously (Brew and Forsythe, 2005).
Chemicals and reagents were purchased from Sigma, (Poole, UK) unless otherwise noted. EXAMPLE 19 was dissolved in DMSO and diluted in ACSF to the required concentration.
Recordings from identified MNTB neurons were conducted as previously described (Brew and Forsythe, 2005). Slices was placed in a superfusion chamber on an inverted microscope stage and continuously perfused with gassed (95% O2-5% CO2) ACSF at a rate of 1 ml min^−1 at room temperature. Whole-cell recordings were made from visually identified MNTB neurons using an […] amplifier (Molecular Devices, Union City, Calif., USA). Patch solution comprised (in mM) potassium gluconate (97.5), KCl (32.5), Hepes (40), EGTA (5), MgCl2 (1), Na2 phosphocreatin (5), pH 7.2 with KOH. Pipettes had resistances of 3-5 MΩ and series resistances were 6-10 MΩ (compensated by 70%, 10 μs lag). Access resistance was frequently monitored and the recording discarded if increases were more than 2 MΩ. […]

Male CD-1 mice = assay: Psychostimulant (amphetamine)-induced hyperactivity in mice (Example 93); settings: mouse

Row | SMILES | acts as positive or negative modulator of Kv3.1 and/or Kv3.2 (hKv3.2) | also measured
1 | CC1(C)NC(=O)N(c2ccc(Oc3cccc4c3C3(CC3)CO4)nc2)C1=O [Example 88, 5,5-dimethyl-3-[6-(spiro[1-benzofuran-3,1′-cyclopropan]-4-yloxy)-3-pyridinyl]-2,4-imidazolidinedione] | negative modulators | effect on the value of Tauact compared to the vehicle control (hKv3.2; hKv3.2): markedly increase
2 | CC[C@H]1NC(=O)N(c2ccc(Oc3ccc(C#N)cc3C(C)(C)C)nc2)C1=O [Example 71, 3-(1,1-dimethylethyl)-4-({5-[(4R)-4-ethyl-2,5-dioxo-1-imidazolidinyl]-2-pyridinyl}oxy)benzonitrile] | negative modulators | effect on the value of Tauact compared to the vehicle control (hKv3.2; hKv3.2): markedly increase
3 | CC[C@H]1NC(=O)N(c2ccc(Oc3ccc(C#N)c(OC(F)(F)F)c3)nc2)C1=O [Example 82, 4-({5-[(4R)-4-ethyl-2,5-dioxo-1-imidazolidinyl]-2-pyridinyl}oxy)-2-[(trifluoromethyl)oxy]benzonitrile] | positive modulators | 
4 | CC[C@H]1NC(=O)N(c2ccc(Oc3ccc(C#N)c(OC(C)C)c3)nc2)C1=O [Example 80, 4-({5-[(4R)-4-ethyl-2,5-dioxo-1-imidazolidinyl]-2-pyridinyl}oxy)-2-[(1-methylethyl)oxy]benzonitrile] | positive modulators | 
5 | CC[C@H]1NC(=O)N(c2ccc(Oc3ccc(C#N)cc3C3CC3)nc2)C1=O [Example 70, 3-cyclopropyl-4-({5-[(4R)-4-ethyl-2,5-dioxo-1-imidazolidinyl]-2-pyridinyl}oxy)benzonitrile] | positive modulators | 
6 | CC[C@H]1NC(=O)N(c2ccc(Oc3ccc(C#N)c(C4CC4)c3)nc2)C1=O [Example 76, 2-cyclopropyl-4-({5-[(4R)-4-ethyl-2,5-dioxo-1-imidazolidinyl]-2-pyridinyl}oxy)benzonitrile] | positive modulators | Tauact mean (hKv3.2; hKv3.2, step to −15 mV, compound 3.1 μM (concentration giving ~0.3 nA current)): 7.6 ms
7 | CC[C@H]1NC(=O)N(c2ccc(Oc3cccc4c3C3(CC3)CO4)nc2)C1=O [Example 87, (5R)-5-ethyl-3-[6-(spiro[1-benzofuran-3,1′-cyclopropan]-4-yloxy)-3-pyridinyl]-2,4-imidazolidinedione] | negative modulators | effect on the value of Tauact compared to the vehicle control (hKv3.2; hKv3.2): markedly increase; ability of neurons to fire an action potential on each pulse (spike probability) [1]: unable to follow trains at the highest frequency
8 | CC[N+](CC)(CC)CC [TEA, tetraethylammonium, reference compound] |  | maximal frequency of action potential firing in response to step currents [2]: lower maximal frequency; amplitude of outward high voltage-activated potassium currents [3]: significantly reduced
9 | CCc1cc(Oc2ccc(N3C(=O)N[C@H](CC)C3=O)cn2)ccc1C#N [Example 78] | positive modulators | 
10 | CC[C@H]1NC(=O)N(c2ccc(Oc3ccc(C#N)c(C(C)C)c3)nc2)C1=O [Example 77, 4-({5-[(4R)-4-ethyl-2,5-dioxo-1-imidazolidinyl]-2-pyridinyl}oxy)-2-(1-methylethyl)benzonitrile] | positive modulators | 
11 | CC(N)Cc1ccccc1 (stereo not shown) [Amphetamine, amphetamine, reference compound] |  | Total Distance Travelled (cm) (Male CD-1 mice; amphetamine 2.0 mg/kg i.p. alone, 60 minutes, mean ± sem): 16304 ± 3309 cm; effect on total distance travelled (Male CD-1 mice; amphetamine alone 2 mg/kg i.p.): large and significant increase
12 | CC[C@@]1(C)NC(=O)N(c2ccc(Oc3ccc(C)c(OC)c3)nc2)C1=O [Example 30, (5R)-5-ethyl-5-methyl-3-(6-{[4-methyl-3-(methyloxy)phenyl]oxy}-3-pyridinyl)-2,4-imidazolidinedione] | positive modulators | 
